Experimental data: doi:10.1101/2021.04.29.441652v1 (biorxiv, 2021)

What follows are compounds tested against human σ2 receptor (TMEM97) (Homo sapiens, UniProt Q5BJF2) (assay: biochemical). Settings: read-out: % of control remaining.
Format: Expi293 membranes

Chain of human σ2 receptor (TMEM97) (Q5BJF2 whole entry): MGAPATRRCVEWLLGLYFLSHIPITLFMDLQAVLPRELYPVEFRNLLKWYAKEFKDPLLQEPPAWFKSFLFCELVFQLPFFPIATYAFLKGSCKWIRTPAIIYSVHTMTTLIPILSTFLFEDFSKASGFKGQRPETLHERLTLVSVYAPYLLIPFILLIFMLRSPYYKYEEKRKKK

| remaining activity at 1 µM [%] | SMILES |
| --- | --- |
| 82.1 | CNC[C@H](C)NC(=O)C(=O)NCc1ccc(N2CCO[C@@H](C)C2)nc1 [ZINC000659691253] |
| 122 | O=C(CN1CC2CC1(c1ccccc1)C2)NC[C@@H]1CCCO1 [ZINC000662335416] |
| 42.3 | CN(CC(=O)Nc1c(Cl)cccc1Cl)C[C@@H]1CC1(C)C [ZINC000662345330] |
| 106 | COc1cc(NC(=O)CC2(N)CC2)cc(OC)c1Br [ZINC000662800454] |
| 103 | O=C(N[C@H]1CCOC2(CCC2)C1)N1CCC(N2CC[C@@H](O)C2)CC1 [ZINC000664479370] |
| 108 | CN(C)Cc1ccc(-c2cscc2CCO)cc1F [ZINC000665143541] |
| 94.4 | O=C(Nc1cnn(CC2CC2)c1)C(=O)N1CCC[C@H]([C@@H]2CCNC2)C1 [ZINC000667676804] |
| 58.4 | Cc1ccccc1-n1cc(CN2CCC[C@@H]([C@H]3CCCCO3)C2)nn1 [ZINC000668631550] |
| 56.6 | OC[C@H](N[C@H]1Cc2[nH]c3ccccc3c2C1)C1CCCCC1 [ZINC000669616349] |
| 106 | C[C@@H](NC(=O)C(=O)NCCCN1CCC[C@H](C(N)=O)C1)C1CCC1 [ZINC000671981913] |
| 69.7 | C[C@H]1[C@H](N2CCCC2)CCN1Cc1cn2cc(Br)ccc2n1 [ZINC000672564445] |
| 110 | O=C(NCCCC1CC1)C(=O)NC1CCN([C@H]2CCC[C@@H]2O)CC1 [ZINC000673584800] |
| 63.8 | Clc1ccccc1Cn1cc(CN2CCC[C@@H]2c2ccc[nH]2)cn1 [ZINC000676461131] |
| 55.7 | c1ccc(-n2cncn2)c(CN2CCC[C@H](N3CCCC3)CC2)c1 [ZINC000678272880] |
| 114 | CN1CC[C@H]2CCN(C(=O)C(=O)Nc3cnc4c(c3)COCC4)[C@@H]2C1 [ZINC000679371269] |
| 103 | COCCOCc1cccc(NC(=O)NCC2(C)CCN(C)CC2)c1 [ZINC000679555790] |
| 108 | CC[C@@]1(NCC(=O)Nc2ccc(C)cc2Br)CCOC1 [ZINC000683045155] |
| 99.8 | Clc1ccccc1Cn1cc(CNc2nc3ccccc3[nH]2)cn1 [ZINC000683721842] |
| 70.6 | CCN(CC)c1ncc(CN2CC(C(C)C)C2)s1 [ZINC000684407814] |
| 17.3 | CC(C)C1CN(C[C@@H](O)COC(c2ccccc2)c2ccccc2)C1 [ZINC000684607185] |
| 51.3 | Brc1ccccc1-n1cc(CN2CC[C@@H]3CCC[C@@H]32)nn1 [ZINC000685844120] |
| 79.5 | CCN1CCN(CCNC(=S)N[C@H](C)c2cccs2)CC1 [ZINC000726467110] |
| 118 | O[C@@H](CN1CCN(c2ccc(-c3nn[nH]n3)cc2F)CC1)C1CC1 [ZINC000738383044] |
| 23.7 | O[C@@H](CN1CC[C@@H](CSc2ccccc2)C1)c1c(F)cccc1F [ZINC000743860012] |
| 108 | CN(C(=O)CCn1cnc2c1c(=O)n(C)c(=O)n2C)c1cn[nH]c1 [ZINC000748395040] |

| remaining activity at 1 µM [%] | SMILES |
| --- | --- |
| 84.1 | Cc1nn(Cc2ccc(F)cc2)c(Cl)c1CNC[C@@]1(O)CCN(C)C1 [ZINC000762555244] |
| 63.2 | Cc1ccc2c(c1)CC[C@H]2N[C@@H](CO)Cc1ccccc1 [ZINC000766031584] |
| 91.7 | C[C@H](CCN1C(=O)c2ccccc2C1=O)NC[C@@H](O)c1c(F)cccc1F [ZINC000769519341] |
| 83.3 | O=C(NC1CCCCC1)C(=O)NC1CCN(C[C@H]2CCCO2)CC1 [ZINC000774469834] |
| 39 | COc1ccc([C@H]2CCN(C[C@@H](O)c3ccc(F)cc3Cl)C2)cc1 [ZINC000775588849] |
| 108 | O=C1NCCC[C@@H]1N1CC[C@@](O)(c2ccc(F)cc2)C1 [ZINC000777733869] |
| 3.8 | O=[N+]([O-])c1cccc([C@H](O)CN2CC(Cc3cccc(C(F)(F)F)c3)C2)c1 [ZINC000792998860] |
| 37.6 | O[C@H](CN[C@@H]1CCc2ccccc2OC1)COc1c(Cl)cccc1Cl [ZINC000801571276] |
| 89.7 | Cc1ccc(C2=NO[C@@H](CNC(=O)N3CC[C@H](N4CCCC4)C3)C2)cc1C [ZINC000802379169] |
| 90 | O=C(NC[C@@H]1CN2CCC[C@@H]2CO1)C(=O)N[C@@H]1CC[C@H]2CCC[C@@H]2C1 [ZINC000804054066] |
| 133 | COc1ccc(C(=O)N2CC[C@H](N3CCCC3)[C@@H]2C)nc1Cl [ZINC000805335094] |
| 105 | CN1CCN(CCNC(=O)C(=O)NC[C@H]2CCC=CO2)CC1(C)C [ZINC000805503179] |
| 106 | CC[C@@H](CN1CCCC1)NC(=O)C(=O)NC1COC(C)(C)OC1 [ZINC000806327364] |
| 99.4 | Cc1ccc(N2CCN(C(=O)C(=O)N[C@@H]3CN(C4CC4)C[C@@H]3C)CC2)cc1 [ZINC000809405032] |
| 108 | C[C@H](NC(=O)c1ccc2[nH]c(=O)c(=O)[nH]c2c1)[C@H](O)c1ccccc1 [ZINC000813849560] |
| 17.6 | CC(C)(C)OC(=O)N1CCC[C@@](C)(CNC[C@@H](O)c2c(F)cccc2F)C1 [ZINC000819225653] |
| 104 | C[C@H]1[C@H](N(C)C)CCN1c1snc(Cl)c1C#N [ZINC000820594289] |
| 104 | O=C([C@H](O)c1cccc([N+](=O)[O-])c1)N1CC[C@H](N2CCCC2)C1 [ZINC000825615260] |
| 78.8 | CS[C@@H]1CCN(C[C@@H](O)c2ccccc2C(F)(F)F)C1 [ZINC000830877226] |
| 28.7 | C[C@@H]1CCC[C@H](CCN2CCC([C@H](O)c3ncc[nH]3)CC2)C1 [ZINC000839577413] |
| 16.2 | OC[C@@H](CNC[C@H](O)c1ccc(F)c(Br)c1)CC1CCCC1 [ZINC000843092160] |
| 43.6 | Fc1ccc(C2OCCO2)c(Cl)c1CNC1CC2(CCC2)C1 [ZINC000846106280] |
| 59.3 | CN1CC[C@]2(CCN(C(=O)C(=O)Nc3cccc4nonc34)C2)C1 [ZINC000847525041] |
| 8.7 | C[C@H]1CN/C(=N/CCCc2c(Cl)cccc2Cl)N1 [ZINC000849049798] |
| 136 | CON(C)CCNC(=O)C(=O)Nc1ccc2c(c1)C(=O)N(C)C2=O [ZINC000850493342] |

| remaining activity at 1 µM [%] | SMILES |
| --- | --- |
| 115 | Fc1ccc(NC(=S)NC2CCN([C@H]3CCOC3)CC2)cc1 [ZINC000853031922] |
| 142 | C[C@H](Nc1nc(N)nc(N)n1)c1ccccc1C(F)(F)F [ZINC000858362097] |
| 106 | Cc1cc(N(C)C)ccc1CNC(=O)C(=O)NC[C@@H]1COCCN1 [ZINC000861751799] |
| 179 | CCC1(N2CCOCC2)CCN(C(=O)C2=NN(C)C(=O)CC2)CC1 [ZINC000863492725] |
| 204 | CN1CCN(C2CCN(c3nc(N)c4ccccc4n3)CC2)CC1 [ZINC000866213504] |
| 76.2 | C[C@H]1CCC[C@H](NC(=O)C(=O)N2CCC(N3CCN(C)CC3)CC2)CC1 [ZINC000875242850] |
| 27.7 | O[C@@H](CN1CC[C@@H](c2ccccc2F)C1)CC1(O)CCCCC1 [ZINC000878084395] |
| 113 | NC(=O)C1(N2CCCCC2)CCN(CC(=O)NCC2CCC2)CC1 [ZINC000880249690] |
| 110 | C=CCC1(O)CCN([C@H](C)C(=O)N[C@@H](C)c2ccc(Cl)cc2)CC1 [ZINC000886762228] |
| 24.1 | Cc1cc(C(=O)CN2CC[C@@H]([C@H]3CCCO3)C2)c(C)n1C1CC1 [ZINC000886836194] |
| 116 | CO[C@@H]1CN(C(=O)NCc2ccnc(N3CCN(C)CC3)c2)CCO1 [ZINC000891830660] |
| 99.5 | CC[C@H](CO)N1CCN(c2cc(Cl)c3cnn(C)c3n2)CC1 [ZINC000892713700] |
| 95.1 | Cc1cccc2sc(N3CCN(CCO)[C@H](C)C3)nc12 [ZINC000893277758] |
| 35 | CC[C@@H](C)N1CCN(c2nc(N)nc(C(F)(F)C(F)(F)F)n2)CC1 [ZINC000894101819] |
| 38.7 | CCC(C)(C)N1CCN(c2nc(N)nc(C(F)(F)C(F)(F)F)n2)CC1 [ZINC000894427229] |
| 33.6 | CCC(C)(C)N1CCN(c2cc(C(F)F)ncn2)CC1 [ZINC000894429059] |
| 90.9 | C[C@@H]1CCCN1CCNC(=O)N1CCC[C@@H]1[C@@H]1CCCC[C@@]1(C)O [ZINC000897504395] |
| 5.1 | FC(F)(F)c1ccnc([C@H]2CCN(C[C@@H]3C[C@H]3c3ccccc3)C2)n1 [ZINC000897616680] |
| 92.2 | O=C(CN[C@H]1CCNC12CCC2)NCCN1CCc2ccccc21 [ZINC000903470913] |
| 127 | C[C@@H]1CN(C(=O)C2CN(C)CCN(C)C2)CC(C)(C)O1 [ZINC000906421824] |
| 119 | CS(=O)(=O)N1CC(C(=O)N2CC(=O)N(CC(F)(F)F)C2)C1 [ZINC000907721339] |
| 45.5 | CC(C)(CN1C(=O)N2CCC[C@@H]3C[C@@]32C1=O)N1CCc2ccccc2C1 [ZINC000924470947] |
| 104 | O=C1CCCCN1C1CCN(C[C@H](O)C[C@]2(O)CCOC2)CC1 [ZINC000929842198] |
| 75.9 | O=C1[C@@H](N2CC[C@@H](C3OCCO3)C2)CCN1c1cccc(Br)c1 [ZINC000932000298] |
| 69.5 | CCOC(=O)[C@@H]1CCN(C[C@@H](O)COc2cccc(C)c2)C1 [ZINC000932649435] |

| SMILES | remaining activity at 1 µM [%] |
| --- | --- |
| Fc1cc(Br)cnc1N1CCN(CCc2cccs2)CC1 [ZINC000681377109] | 114 |
| Cc1ccc(NC(=O)C23CCC(CC2)N3)cc1[N+](=O)[O-] [ZINC000911907143] | 93.1 |
| CCn1ncc2c1CCC[C@@H]2N[C@@H](C)Cc1ccccn1 [ZINC000925887162] | 27.4 |
| Cc1csc2nc(CN[C@](C)(CO)Cc3ccc(F)cc3)cc(=O)n12 [ZINC000933438523] | 28.1 |
